# Values of other authors, collected in patent publication US6902746B2, “Oral pharmaceutical compositions containing non-steroidal anti-inflammatory drugs and method for preparing the same” (Yung Shin Pharmaceutical Industrial Co., Ltd., priority 2002, dated 2005).
# How the values were obtained:
# [1] = system: M.K. and δ opioid receptors
# [2] = animal studies; fraction of the effect of ketorolac tromethamine
# [3] = animal studies; fraction of the effect of ketorolac tromethamine; remark: listed apart in the source
# [4] = system: platelet aggregation; conditions: in vitro; fraction of the activity of ketorolac tromethamine
# [5] = in vivo
compound,measurement,setting,value
O=C(c1ccccc1)c1ccc2n1CCC2C(=O)O (stereo not shown) [ketorolac],binding to opioid receptors,[1],does not bind
O=C(c1ccc(O)cc1)c1ccc2n1CCC2C(=O)O (stereo not shown) [p-hydroxyketorolac],analgesic effect relative to ketorolac tromethamine,[2],1/100
same,anti-inflammatory effect relative to ketorolac tromethamine,[3],less than ⅕
same,anti-platelet aggregation activity relative to ketorolac tromethamine,[4],1/25
"(±)-5-benzoyl-2,3-dihydro-1H-pyrrolizine-1-carboxylic acid 2-amino-2-(hydroxymethyl)-1,3-propanediol [Ketorolac tromethamine]",plasma half-lives,[5]; human,markedly prolonged
same,total clearance,[5]; human,decreased
same,administered drug eliminated in the urine,[5],about 75%
same,"administered drug, in its original form, found in the feces",[5],About 6%
same,bound to plasma proteins,[5],about 99%
same,mean elimination half-live,[5],5.3 h
same,mean volume of distribution at steady state,[5],0.11 L/kg
same,mean volume of distribution during the elimination phase,[5],0.17 to 0.25 L/kg
same,absorption in the presence of antacids,[5]; po,not affected
